In PubChem BioAssay (NCI):
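Test compounds were applied to cells in 96-well plates for 48 hours at 5 doses. GI50 marks 50% less growth. TGI: concentration producing complete growth inhibition.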

What was measured:
Test in all cases: NCI anticancer screen, dose series, 48 h
[1] = test system: HT29 colon
[2] = test system: HOP-62 NSCLC
[3] = test system: SK-MEL-2 melanoma
[4] = test system: SW-620 colon
[5] = test system: SNB-19 CNS
[6] = test system: CAKI-1 renal
[7] = test system: MOLT-4 leukemia
[8] = test system: SF-268 CNS
[9] = test system: UACC-257 melanoma
[10] = test system: U251 CNS
[11] = test system: HS 578T breast
[12] = test system: MDA-MB-435
[13] = test system: MALME-3M melanoma
[14] = test system: OVCAR-3 ovarian
[15] = test system: TK-10 renal
[16] = test system: SK-MEL-5 melanoma
[17] = test system: SK-MEL-28 melanoma
[18] = test system: NCI-H460 lung
[19] = test system: UO-31 renal
[20] = test system: SF-295 CNS
[21] = test system: SR leukemia
[22] = test system: HOP-92 NSCLC
[23] = test system: COLO 205 colon
[24] = test system: IGROV1 ovarian
[25] = test system: HCC-2998 colon
[26] = test system: HCT-116 colon
[27] = test system: RPMI-8226 leukemia
[28] = test system: OVCAR-8 ovarian
[29] = test system: SNB-75 CNS
[30] = test system: ACHN renal
[31] = test system: DU-145 prostate
[32] = test system: SN12C renal
[33] = test system: HL-60(TB) leukemia
[34] = test system: BT-549 breast
[35] = test system: EKVX NSCLC
[36] = test system: NCI-H522 lung
[37] = test system: K-562 leukemia
[38] = test system: LOX IMVI melanoma
[39] = test system: MCF7 breast
[40] = test system: 786-0 renal
[41] = test system: NCI-H23 lung
[42] = test system: PC-3 prostate
[43] = test system: NCI/ADR-RES ovarian
[44] = test system: A498 renal
[45] = test system: A549 NSCLC
[46] = test system: HCT-15 colon
[47] = test system: MDA-MB-231 breast
[48] = test system: T-47D breast
[49] = test system: OVCAR-5 ovarian
[50] = test system: RXF 393 renal
[51] = test system: M14 melanoma
[52] = test system: OVCAR-4 ovarian
[53] = test system: UACC-62 melanoma
[54] = test system: SF-539 CNS
[55] = test system: SK-OV-3 ovarian
[56] = test system: CCRF-CEM leukemia
[57] = test system: KM12 colon
[58] = test system: NCI-H226 lung

## O=C1CCC/C=C\C[C@H]2C=CC(=O)/C2=C/C[C@H](CCc2cccc(C(F)(F)F)c2)O1
[1]
  GI50: 1.11 µM
  TGI: 3.39 µM
[2]
  GI50: 2.84 µM
  TGI: 6.83 µM
[3]
  GI50: 2.06 µM
  TGI: 4.94 µM
[4]
  GI50: 2.87 µM
  TGI: 9.06 µM
[5]
  GI50: 2.22 µM
  TGI: 7.04 µM
[6]
  GI50: 4.04 µM
  TGI: 16 µM
[7]
  GI50: 2.14 µM
  TGI: 6.26 µM
[8]
  GI50: 2.77 µM
  TGI: 8.3 µM
[9]
  GI50: 2.11 µM
  TGI: 5.18 µM
[10]
  GI50: 1.26 µM
  TGI: 2.85 µM
[11]
  GI50: 4.78 µM
  TGI: 56.7 µM
[12]
  GI50: 0.462 µM
  TGI: 2.7 µM
[13]
  GI50: 2.25 µM
  TGI: 7.1 µM
[14]
  GI50: 1.46 µM
  TGI: 3.23 µM
[15]
  GI50: 2.66 µM
  TGI: 5.19 µM
[16]
  GI50: 1.69 µM
  TGI: 3.09 µM
[17]
  GI50: 2.56 µM
  TGI: 6.75 µM
[18]
  GI50: 3.18 µM
  TGI: 10.1 µM
[19]
  GI50: 1.57 µM
  TGI: 3 µM
[20]
  GI50: 2.15 µM
  TGI: 4.83 µM
[21]
  GI50: 0.627 µM
  TGI: 5.62 µM
[22]
  GI50: 2.29 µM
  TGI: 4.77 µM
[23]
  GI50: 1.58 µM
  TGI: 4.16 µM
[24]
  GI50: 3.06 µM
  TGI: 9.53 µM
[25]
  GI50: 2.01 µM
  TGI: 3.54 µM
[26]
  GI50: 0.327 µM
  TGI: 1.48 µM
[27]
  GI50: 0.628 µM
  TGI: 6.73 µM
[28]
  GI50: 0.495 µM
  TGI: 5.64 µM
[29]
  GI50: 2.02 µM
  TGI: 5.21 µM
[30]
  GI50: 1.19 µM
  TGI: 2.6 µM
[31]
  GI50: 1.66 µM
  TGI: 4.58 µM
[32]
  GI50: 3.66 µM
  TGI: 12.9 µM
[33]
  GI50: 2.1 µM
  TGI: 6.88 µM
[34]
  GI50: 2.57 µM
  TGI: 7.99 µM
[35]
  GI50: 1.94 µM
  TGI: 4.08 µM
[36]
  GI50: 1.23 µM
  TGI: 3.77 µM
[37]
  GI50: 0.692 µM
  TGI: 6.44 µM
[38]
  GI50: 0.44 µM
  TGI: 1.82 µM
[39]
  GI50: 0.287 µM
  TGI: 2.58 µM
[40]
  GI50: 1.99 µM
  TGI: 3.68 µM
[41]
  GI50: 2.16 µM
  TGI: 5.89 µM
[42]
  GI50: 1.79 µM
  TGI: 4.74 µM
[43]
  GI50: 0.748 µM
  TGI: 11.3 µM
[44]
  GI50: 1.68 µM
  TGI: 3.22 µM
[45]
  GI50: 2.31 µM
  TGI: 5.56 µM
[46]
  GI50: 1.23 µM
  TGI: 4.07 µM
[47]
  GI50: 4.41 µM
  TGI: 18.2 µM
[48]
  GI50: 1.78 µM
  TGI: 7.12 µM
[49]
  GI50: 4.05 µM
  TGI: 11.3 µM
[50]
  GI50: 1.66 µM
  TGI: 3.08 µM
[51]
  GI50: 1.76 µM
  TGI: 5.32 µM
[52]
  GI50: 3.78 µM
  TGI: 15.9 µM
[53]
  GI50: 2.34 µM
  TGI: 7.52 µM
[54]
  GI50: 2.61 µM
  TGI: 6.81 µM
[55]
  GI50: 2.92 µM
  TGI: 7.75 µM
[56]
  GI50: 0.397 µM
  TGI: 11.4 µM
[57]
  GI50: 1.64 µM
  TGI: 3.35 µM

## N#Cc1cnc(=O)n(C2CC(O)C(CO)O2)c1 (stereo not drawn)
[1]
  GI50: > 100 µM
  TGI: > 100 µM
[2]
  GI50: > 100 µM
  TGI: > 100 µM
[3]
  GI50: > 100 µM
  TGI: > 100 µM
[4]
  GI50: > 100 µM
  TGI: > 100 µM
[5]
  GI50: > 100 µM
  TGI: > 100 µM
[6]
  GI50: > 100 µM
  TGI: > 100 µM
[7]
  GI50: > 100 µM
  TGI: > 100 µM
[8]
  GI50: > 100 µM
  TGI: > 100 µM
[9]
  GI50: > 100 µM
  TGI: > 100 µM
[10]
  GI50: > 100 µM
  TGI: > 100 µM
[11]
  GI50: > 100 µM
  TGI: > 100 µM
[12]
  GI50: > 100 µM
  TGI: > 100 µM
[13]
  GI50: > 100 µM
  TGI: > 100 µM
[14]
  GI50: > 100 µM
  TGI: > 100 µM
[15]
  GI50: > 100 µM
  TGI: > 100 µM
[16]
  GI50: > 100 µM
  TGI: > 100 µM
[17]
  GI50: > 100 µM
  TGI: > 100 µM
[18]
  GI50: > 100 µM
  TGI: > 100 µM
[19]
  GI50: 51.6 µM
  TGI: > 100 µM
[20]
  GI50: > 100 µM
  TGI: > 100 µM
[21]
  GI50: > 100 µM
  TGI: > 100 µM
[22]
  GI50: > 100 µM
  TGI: > 100 µM
[23]
  GI50: > 100 µM
  TGI: > 100 µM
[24]
  GI50: > 100 µM
  TGI: > 100 µM
[25]
  GI50: > 100 µM
  TGI: > 100 µM
[26]
  GI50: > 100 µM
  TGI: > 100 µM
[27]
  GI50: > 100 µM
  TGI: > 100 µM
[28]
  GI50: > 100 µM
  TGI: > 100 µM
[29]
  GI50: 44.1 µM
  TGI: > 100 µM
[30]
  GI50: > 100 µM
  TGI: > 100 µM
[31]
  GI50: > 100 µM
  TGI: > 100 µM
[32]
  GI50: > 100 µM
  TGI: > 100 µM
[33]
  GI50: > 100 µM
  TGI: > 100 µM
[34]
  GI50: > 100 µM
  TGI: > 100 µM
[58]
  GI50: > 100 µM
  TGI: > 100 µM
[35]
  GI50: > 100 µM
  TGI: > 100 µM
[36]
  GI50: > 100 µM
  TGI: > 100 µM
[37]
  GI50: 93.1 µM
  TGI: > 100 µM
[38]
  GI50: > 100 µM
  TGI: > 100 µM
[39]
  GI50: > 100 µM
  TGI: > 100 µM
[40]
  GI50: > 100 µM
  TGI: > 100 µM
[41]
  GI50: > 100 µM
  TGI: > 100 µM
[42]
  GI50: > 100 µM
  TGI: > 100 µM
[43]
  GI50: > 100 µM
  TGI: > 100 µM
[44]
  GI50: 17.5 µM
  TGI: 82 µM
[45]
  GI50: > 100 µM
  TGI: > 100 µM
[46]
  GI50: > 100 µM
  TGI: > 100 µM
[47]
  GI50: > 100 µM
  TGI: > 100 µM
[48]
  GI50: > 100 µM
  TGI: > 100 µM
[49]
  GI50: > 100 µM
  TGI: > 100 µM
[51]
  GI50: > 100 µM
  TGI: > 100 µM
[52]
  GI50: > 100 µM
  TGI: > 100 µM
[53]
  GI50: > 100 µM
  TGI: > 100 µM
[54]
  GI50: > 100 µM
  TGI: > 100 µM
[55]
  GI50: > 100 µM
  TGI: > 100 µM
[56]
  GI50: > 100 µM
  TGI: > 100 µM
[57]
  GI50: > 100 µM
  TGI: > 100 µM
